# According to patent publication USRE50172E1, “In vitro maturation of a mammalian cumulus oocyte complex” (Vrije Universiteit Brussel, priority 2014, dated 2024):
# Entries after “also recorded” stand apart in the source; their conditions may differ. No end group written: not given here.
# Columns and labels:
# Assay type in all cases: cell-based, mouse
# Preovulatory COCs [1] = assay: Meiotic resumption after 18 hours, CNP-53 dose range (Example 5)
# Method: The materials and methods used in this further example are accordingly in common with the materials and methods used in Example 4 but for the use of CNP-53 instead. Cumulus-oocyte complexes from 24-25 day-old mice were isolated from in vivo grown antral follicles post 48 h eCG stimulation. Mice were injected with 2.5 IU eCG when they were 22-23 days-old. Intact COCs were put in culture for a period of 18 hours in presence of the following doses of CNP-53: • Control (No CNP)* • 0.1 nM • 1 nM • 10 nM • 50 nM • 100 nM • 1 μM • Control 25 nM CNP-22*
# *Two control conditions were included: 1) 25 nM CNP-22 (standard dose known and used in previous experiments to maintain meiotic arrest), 2) a control condition where CNP is not present in the culture media.
# Differences in the rate of oocyte meiotic resumption (per meiotic stage) were assessed by ANOVA followed by a Tukey's Multiple Comparison Test, p<0.001. Percentages data were transformed (arcsine) before performing statistical analysis.
# [2] = system: cumulus-enclosed oocytes from early antral follicles; assay: Developmental competence after capacitation culture with CNP or Cilostamide, IVM and IVF (Example 3); conditions: 48 hours capacitation culture, IVM with EGF, IVF
# Method: Immature cumulus-oocyte complexes were isolated from early antral follicles (from unstimulated 19-20 day-old mice). COCs were placed in basal culture medium for a period of 48 hours in presence of either CNP or Cilostamide (PDE3-Inhibitor); similar to example 2.
# Following the capacitation culture, COCs were matured in presence of Epidermal growth factor (EGF) and in-vitro fertilized. Post fertilization embryo development was evaluated.
# Acquisition of oocyte competence under each condition was evaluated by their capacity to mature, fertilize (2-cell rate) and to produce good quality blastocyst (by day 5 of embryo culture).
# Differences in the rate of fertilization and blastocyst formation between CNP and Cilostamide groups were assessed by chi-square.
# Pre-ovulatory COCs [3] = assay: Meiotic arrest of pre-ovulatory COCs cultured 18 hours with CNP-22 (Example 1)
# Excerpt: (§1) For the collection of immature COCs, compact COCs of the first wave of follicular development were collected from small antral follicles of pre-pubertal mice (19-21 days-old), without prior gonadotropin administration. For the collection of pre-ovulatory COCs (controls), compact COCs were collected by puncturing large antral follicles of pre-pubertal female mice (25-27 days-old) following 48 hrs of priming with 2,5IU 2.5 IU equine Chronic Gonadotropin (eCG, Folligon, Intervet, Oss, The Netherlands). Collection medium consisted of Leibovitz L-15, containing 10% Heat-inactivated Foetal Bovine Serum (FBS), 100lU/ml 100 IU/ml penicillin, 100 μg/ml streptomycin (all from Life Technologies, Gent, Belgium) and supplemented with 200 μM 3-Isobutyl-1-methylxanthine (IBMX; Sigma, Schnelldorf, Germany) to prevent meiosis reinitiation during the period of collection and pre culture handling.
# (§2) Basal culture medium for the culture of COCs (Pre-IVM and IVM phases) consisted of α-MEM, 2.5% FBS (both from Life Technologies, Gent, Belgium) and 5 ng/mL Insulin, 5 ug/mt ug/ml. Apo-Transferrin, 5 ng/mL Sodium selenite (All from Sigma, Schnelldorf, Germany).
# (§3) At specified time-points oocytes were mechanically freed from compact or expanded cumulus cells by using a mouth controlled fine bore glass pipette. Meiotic reinitiation was analyzed by assessing the nuclear maturational stage under an inverted microscope equipped with a Hoffman modulation contrast system (Nikon, Tokyo, Japan). Nuclear maturation was scored as GV (Germinal vesicle stage), GVBD (when GV non visible), PB (first polar body observed in perivitelline space) or DEG (when the oocyte was degenerated).
# (§4) Pre-ovulatory COCs, retrieved from gonadotropin-primed mice (aged 26-27 days-old), were placed in culture, for 18 hours, in presence of 0 (Control), 1, 10, 100 nM CNP-22 and in combination with 4 ng/mL EGF.
# Preovulatory COCs [4] = assay: Meiotic resumption after 18 hours, CNP-22 dose range (Example 4)
# Method: The materials and methods used in this further example are accordingly in common with the materials and methods used in Example 1. Cumulus-oocyte complexes from 24-26 day-old mice were isolated from in vivo grown antral follicles post 48 h equine Chronic Gonadotropin stimulation (eCG, Folligon, Intervet, Oss, The Netherlands). Mice were injected with 2.5 IU eCG when they were 22-24 days-old. Intact COCs with at least 2 layers of cumulus cells were put in culture for a period of 18 hours in presence of the following doses of CNP: • Control (No CNP)* • 0.1 nM** • 1 nM • 10 nM • 50 nM** • 100 nM • 1 μM**
# COCs were collected and cultured according to the previous dose experiments in mice, provided in the Example 1.
# Differences in the rate of oocyte meiotic resumption (per meiotic stage) were assessed by ANOVA followed by a Tukey's Multiple Comparison Test, p<0.01. Percentages data were transformed (arcsine) before performing statistical analysis.
# Oocyte meiotic arrest was confirmed by the presence of an intact germinal vesicle (GV) under the inverted microscope, […]
# Immature COCs = assay: Meiotic arrest of immature COCs from small antral follicles, 48 hours culture
# Excerpt: as §1, §2
# At specified time-points oocytes were mechanically freed from compact or expanded cumulus cells by using a mouth controlled fine bore glass pipette. Meiotic reinitiation was analyzed by assessing the nuclear maturational stage under an inverted microscope equipped with a Hoffman modulation contrast system (Nikon, Tokyo, Japan). Nuclear maturation was scored as GV (Germinal vesicle stage), GVBD (when GV non visible), PB (first polar body observed in perivitelline space) or DEG (when the oocyte was degenerated). […]
# Immature COCs were retrieved from small antral follicles of female mice aged 19-20 days-old and placed in culture for 48 hours in presence of 25 nM CNP-22 and presence or absence of 10 nM 17-β-estradiol; additionally the effects of the further addition of 2.5 or 5 mlU/mL mIU/ml FSH and/or 50 ng/mL GDF9 were evaluated.
# [5] = system: COCs from early antral follicles; assay: Cumulus-oocyte connections (transzonal projections) after capacitation culture with CNP or PDE3 inhibitor (Example 2); conditions: 48 h culture, F-actin staining of zona pellucida, no FSH; listed as CNP
# Method: Basal culture medium for the culture of COCs (Pre-IVM and IVM phases) consisted of α-MEM, 2.5% FBS (both from Life Technologies, Gent, Belgium) and 5 ng/mL Insulin, 5 ug/mL Apo-Transferrin, 5 ng/mL Sodium selenite (All from Sigma, Schnelldorf, Germany). Capacitation medium consisted of basal medium supplemented with either 25 nM CNP or 1 μM Org9935 or 1 μM Cilostamide in combination with 10 nM E2 17-β-estradiol. CNP was obtained from Phoenix Europe (Karlsruhe, Germany), while Cilostamide was obtained from Enzo Life Sciences (Antwerpen, Belgium). Since the aim of the experiment was to make evident potential differences between CNP and PDE3-inhibitors, avoiding potential interference of FSH was crucial, therefore the latter was omitted from capacitation medium. When tested in the presence of FSH, the latter masked the effect of CNP on the connection between the oocyte and surrounding layers of cumulus cells, in having itself a contribution to said connection which is even apparent in the presence of a PDE3-inhibitor (data not shown). […]
# In FIG. 7 average pixel intensity was used as a tool to quantify positive actin staining (TZP) going through zona pellucida. […]
# Pre-ovulatory COCs [6] = assay: EGFR-dependent meiotic resumption of pre-ovulatory COCs in presence of CNP-22 and EGF; conditions: for PB rate: 18 hours
# Excerpt: as §1, §2
# For experiments involving IVM, recombinant Epidermal growth Factor (r-EGF) (Roche; Mannheim, Germany) and recombinant mouse Epiregulin (EREG) (R&D systems Europe; Oxon, United Kingdom) were used as ovulatory stimuli and the cultures lasted 18 hrs.
# as §3, §4
# Pre-ovulatory COCs, retrieved from gonadotropin-primed mice, were placed in culture in absence (controls) or presence of 25 nM CNP-22 4 ng/mL EGF, and meiotic maturation was assessed at 2, 4 and 6 hours. While meiotic resumption increased from 2 to 6 hours in the control group, few GVBDs were induced in the CNP-22 EGF treated group (≤11%), within the same period of time (FIG. 2A).
# [7] = 1 nM, 10 nM, 50 nM and 100 nM, 18 hours
substance,measurement,setting,value
"CNP-53: CNP analogue; endogenous form of C-type natriuretic peptide containing a 53-amino acid sequence (DLRVDTKSRAAWARLLQEHPNARKYKGANKKGLSKGCFGLKLDRIGSMSGLGC; ends and bridges not checked; cysteine pairing not given here; UniProt P23582 74-126, looked up)",percentage of oocytes at the GVBD-stage vs control,"Preovulatory COCs [1]; 0.1 nM to 1 μM, 18 hours",No significant differences
same,maintaining oocytes arrested at the GV stage,"Preovulatory COCs [1]; 0.1 nM, 18 hours",suboptimal
same,oocytes under meiotic arrest (GV rate),"Preovulatory COCs [1]; 1 nM CNP-53, 18 hours",66%
same,proportion of oocytes extruding the first polar body vs control without CNP,Preovulatory COCs [1]; [7],significant different
same,oocytes under meiotic arrest (GV rate),"Preovulatory COCs [1]; 10 nM CNP-53, 18 hours",98%
same,oocytes under meiotic arrest (GV rate),"Preovulatory COCs [1]; 50 nM CNP-53, 18 hours",72%
same,oocytes under meiotic arrest (GV rate),"Preovulatory COCs [1]; 100 nM CNP-53, 18 hours",69%
same,maintaining oocytes arrested at the GV stage,"Preovulatory COCs [1]; 1 μM, 18 hours",suboptimal
"C-type natriuretic peptide (GLSKGCFGLKLDRIGSMSGLGC; ends and bridges not checked; cysteine pairing not given here; UniProt P23582 105-126, looked up) [CNP-22, 22 amino acid C-type natriuretic peptide, obtained from Phoenix Europe]","fertilization rate, CNP vs Cilostamide",[2],no difference
same,"blastocyst formed per fertilized egg, CNP vs Cilostamide",[2]; day 5,significantly higher
same,GV rate at the end of culture,"Pre-ovulatory COCs [3]; 1 nM CNP-22, 18 hours",48%
same,GV rate at the end of culture,"Pre-ovulatory COCs [3]; 10 nM CNP-22, 18 hours",93%
same,GV rate at the end of culture,"Pre-ovulatory COCs [3]; 100 nM CNP-22, 18 hours",96%
same,time meiotic arrest is maintained,Pre-ovulatory COCs [3]; pre-ovulatory COCs,at least 24 hours
same,percentage of oocytes at the GVBD-stage vs control,"Preovulatory COCs [4]; 0.1 nM to 1 μM, 18 hours",No significant differences
same,maintaining oocytes arrested at the GV stage,"Preovulatory COCs [4]; 0.1 nM, 18 hours",suboptimal
same,oocytes in meiotic arrest (GV rate),"Preovulatory COCs [4]; 1 nM CNP-22, 18 hours",80%
same,oocytes extruding the first polar body (PB rate),Preovulatory COCs [4]; [7],low proportion or lack
same,oocytes in meiotic arrest (GV rate),"Preovulatory COCs [4]; 10 nM CNP-22, 18 hours",98%
same,oocytes in meiotic arrest (GV rate),"Preovulatory COCs [4]; 50 nM CNP-22, 18 hours",94%
same,oocytes in meiotic arrest (GV rate),"Preovulatory COCs [4]; 100 nM CNP-22, 18 hours",87%
same,maintaining oocytes arrested at the GV stage,"Preovulatory COCs [4]; 1 μM, 18 hours",suboptimal
same,rate of meiotic arrest in preovulatory oocytes,Preovulatory COCs [4]; dose interval 1 nM to 100 nM,above 80%
same,oocytes under meiotic arrest (GV rate),"Preovulatory COCs [1]; 25 nM CNP-22 positive control, 18 hours",75%
same,oocytes maintained in meiotic arrest,"Immature COCs; 1 nM, 10 nM, 25 nM, or 50 nM CNP, oocytes from the smallest size of follicles",~100%
same,GV rate,"Immature COCs; 25 nM CNP alone, 48 hours",26%
same,maintenance of meiotic arrest in immature COCs,"Immature COCs; CNP-22 alone, culture up to 48 hours (data not shown)",can maintain meiotic arrest for 24 hours but not for 48 hours
same,transzonal projections / connectivity between oocytes and cumulus cells,[5],full with transzonal projections; also recorded: kept better the connectivity between oocytes and cumulus cells
same,PB rate,Pre-ovulatory COCs [6]; 1 nM CNP-22 with 4 ng/mL EGF,92%
same,PB rate,Pre-ovulatory COCs [6]; 10 nM CNP-22 with 4 ng/mL EGF,35%
same,GVBDs induced,"Pre-ovulatory COCs [6]; 25 nM CNP-22, 4 ng/mL EGF, 2 to 6 hours",≤ 11%
same,occurrence of PB oocytes,"Pre-ovulatory COCs [6]; 25 nM CNP-22, 4 ng/mL EGF, 24 hours",93%
same,PB rate,Pre-ovulatory COCs [6]; 100 nM CNP-22 with 4 ng/mL EGF,15%
same,delay of EGFR-induced meiotic resumption vs control,Pre-ovulatory COCs [6]; COCs kept under meiotic arrest by CNP,6 h
